Results published in patent US5143906A, “Kedarcidin antitumor chromophore and pharmaceutical composition containing same” (Bristol-Myers Squibb Company, priority 1991, dated 1992).
≈ marks a conversion by molar mass, not a printed value.

Key:
[1] = tested on: HCT116/VP35 drug resistant cell line; assay: In vitro cytotoxicity assay (XTT), HCT116/VP35; type: cell-based, human; details: Homo sapiens, HCT-116; HCT116/VP35, 72 h; VP-16 values: mean of triplicate determinations from last 6 experiments; read-out: IC50
Description: (§1) The A2780/DDP cell line is reported to be resistant through enhanced DNA repair mechanisms and elevated GSH/GST levels. Cells were cultured in McCoy's media and 10% fetal bovine serum. When in log phase growth, 4×10^3 cells/well were plated into 96 well microtiter plates and incubated at 37° C. in […] /5% CO2 for 24 hours to allow cell attachment. Compounds were added to the top row of wells, serially diluted (4 fold dilutions) and incubated for an additional 72 hours. The number of viable cells in each well was then quantitated as previously described^2 by adding 0.05 mg/ml final concentration tetrazolium stain (XTT) in the presence of 0.005 mM final concentration phenazine methosulfate. After incubation at room temperature for 3 hours to allow color development, optical density values were measured using a Dynatech MR600 plate reader at […]. IC50 values (drug concentration inhibiting cell growth by 50%) were calculated using linear regression analysis of the optical density readings. Triplicate determinations on separate 96 well plates were done for each drug on each cell line tested.

[2] = tested on: A2780/DDP drug resistant cell line; assay: In vitro cytotoxicity assay (XTT), A2780/DDP; type: cell-based, human
Description: as §1

[3] = tested on: human colon adenocarcinoma HCT116 drug sensitive line; assay: In vitro cytotoxicity assay (XTT), HCT116; type: cell-based; details: Homo sapiens, HCT-116; HCT116, 72 h; VP-16 values: mean of triplicate determinations from last 6 experiments; read-out: IC50
Description: as §1

[4] = tested on: human ovarian carcinoma A2780 drug sensitive cell line; assay: In vitro cytotoxicity assay (XTT), A2780; type: cell-based; details: Homo sapiens; A2780, 72 h; VP-16 values: mean of triplicate determinations from last 6 experiments; read-out: IC50
Description: as §1

[5] = tested on: HCT116/VM46 drug resistant cell line; assay: In vitro cytotoxicity assay (XTT), HCT116/VM46; type: cell-based, human; details: Homo sapiens, HCT-116/VM46; HCT116/VM46, 72 h; VP-16 values: mean of triplicate determinations from last 6 experiments; read-out: IC50
Description: as §1

[6] = tested on: iv implanted P388 leukemia; assay: Antitumor activity against iv implanted P388 leukemia; type: in vivo, murine (CDF1 mice); parameters: Med. surv. time: unit not given here
Source text: (§2) The P388 tumor was maintained in ascitic form in DBA/2 mice. Experimental tumor models used CDF^1 mice implanted via the intraperitoneal or intravenous route with 1×10^6 leukemia cells on day 0 and dosed with drugs according to the indicated route and schedule. Mice were weighed on day 0 and on day 5 or 6. Weight loss of 20% or greater was an indicator of drug toxicity. Each dose group consisted of 6 mice with 10 mice in the untreated control group. The dosing schedule was Q1DX1;1. Death checks were performed daily and the median life span of each group determined. […] Experiments were terminated on or about day 30.

[7] = tested on: ip implanted P388 leukemia; assay: Antitumor activity against ip implanted P388 leukemia; type: in vivo, murine (CDF1 mice); parameters: Med. surv. time: unit not given here
Source text: as §2

COc1cc([C@@H]2c3cc4c(cc3[C@@H](O[C@@H]3O[C@@H]5CO[C@@H](C)O[C@H]5[C@H](O)[C@H]3O)[C@H]3COC(=O)[C@H]23)OCO4)cc(OC)c1O [VP-16, etoposide, reference compound]
IC50 [1]: 8.76 µg/mL (≈ 14.9 µM) | fold less potent on the resistant cell line compared to the sensitive cell line ([2]; A2780/DDP vs A2780, 4320 min): about 6.6 fold | IC50 ([2]; Homo sapiens, A2780/DDP, 72 h, VP-16 values: mean of triplicate determinations from last 6 experiments, read-out: IC50): 0.379 µg/mL (≈ 0.644 µM) | IC50 [3]: 0.69 µg/mL (≈ 1.17 µM) | IC50 [4]: 0.057 µg/mL (≈ 0.0968 µM) | IC50 [5]: 3.25 µg/mL (≈ 5.53 µM)

CO[C@@]12[C@H](COC(N)=O)C3=C(C(=O)C(C)=C(N)C3=O)N1C[C@@H]1N[C@@H]12 [Mitomycin C, reference compound]
% T/C ([6]; Exp. 8305, 0.8 mg/kg/dose): 114% | Av. wgt. change ([6]; Exp. 8305, 0.8 mg/kg/dose): 0.4 g | Med. surv. time ([6]; Exp. 8305, 0.8 mg/kg/dose): 8.0 | No. of mice alive on d 5 ([6]; Exp. 8305, 0.8 mg/kg/dose): 6/6 | % T/C ([6]; Exp. 8305, 1.6 mg/kg/dose): 143% | Av. wgt. change ([6]; Exp. 8305, 1.6 mg/kg/dose): -0.3 g | Med. surv. time ([6]; Exp. 8305, 1.6 mg/kg/dose): 10.0 | No. of mice alive on d 5 ([6]; Exp. 8305, 1.6 mg/kg/dose): 6/6 | % T/C ([6]; Exp. 8305, 3.2 mg/kg/dose): 157% | Av. wgt. change ([6]; Exp. 8305, 3.2 mg/kg/dose): 0.5 g | Med. surv. time ([6]; Exp. 8305, 3.2 mg/kg/dose): 11.0 | No. of mice alive on d 5 ([6]; Exp. 8305, 3.2 mg/kg/dose): 6/6 | % T/C ([6]; Exp. 8305, 4.8 mg/kg/dose): 193% | Av. wgt. change ([6]; Exp. 8305, 4.8 mg/kg/dose): -0.8 g | Med. surv. time ([6]; Exp. 8305, 4.8 mg/kg/dose): 13.5 | No. of mice alive on d 5 ([6]; Exp. 8305, 4.8 mg/kg/dose): 6/6 | % T/C ([6]; Exp. 8328, 1.6 mg/kg/dose): 129% | Av. wgt. change ([6]; Exp. 8328, 1.6 mg/kg/dose): -0.1 g | Med. surv. time ([6]; Exp. 8328, 1.6 mg/kg/dose): 9.0 | No. of mice alive on d 5 ([6]; Exp. 8328, 1.6 mg/kg/dose): 6/6 | % T/C ([6]; Exp. 8328, 3.2 mg/kg/dose): 143% | Av. wgt. change ([6]; Exp. 8328, 3.2 mg/kg/dose): -0.7 g | Med. surv. time ([6]; Exp. 8328, 3.2 mg/kg/dose): 10.0 | No. of mice alive on d 5 ([6]; Exp. 8328, 3.2 mg/kg/dose): 6/6 | % T/C ([7]; Exp. 8305, 3.2 mg/kg/dose): 200% | Av. wgt. change ([7]; Exp. 8305, 3.2 mg/kg/dose): -0.5 g | Med. surv. time ([7]; Exp. 8305, 3.2 mg/kg/dose): 20.0 | No. of mice alive on d 5 ([7]; Exp. 8305, 3.2 mg/kg/dose): 6/6 | % T/C ([7]; Exp. 8305, 4.8 mg/kg/dose): 230% | Av. wgt. change ([7]; Exp. 8305, 4.8 mg/kg/dose): -0.7 g | Med. surv. time ([7]; Exp. 8305, 4.8 mg/kg/dose): 23.0 | No. of mice alive on d 5 ([7]; Exp. 8305, 4.8 mg/kg/dose): 6/6 | % T/C ([7]; Exp. 8328, 3.2 mg/kg/dose): 190% | Av. wgt. change ([7]; Exp. 8328, 3.2 mg/kg/dose): -0.8 g | Med. surv. time ([7]; Exp. 8328, 3.2 mg/kg/dose): 19.0 | No. of mice alive on d 5 ([7]; Exp. 8328, 3.2 mg/kg/dose): 6/6 | % T/C ([7]; Exp. 8328, 4.8 mg/kg/dose): 200% | Av. wgt. change ([7]; Exp. 8328, 4.8 mg/kg/dose): -0.5 g | Med. surv. time ([7]; Exp. 8328, 4.8 mg/kg/dose): 20.0 | No. of mice alive on d 5 ([7]; Exp. 8328, 4.8 mg/kg/dose): 6/6
